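Method: 48-hour compound exposure of cells in 96-well plates, five concentrations, linear interpolation of endpoints. TGI marks complete inhibition of growth.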
Key:
Experiment in all cases: NCI tumour cell line growth inhibition, 48 h
[1] = test system: UO-31 renal
[2] = test system: A498 renal
[3] = test system: SK-MEL-5 melanoma
[4] = test system: SNB-75 CNS
[5] = test system: NCI-H226 lung
[6] = test system: HT29 colon
[7] = test system: COLO 205 colon
[8] = test system: SNB-19 CNS
[9] = test system: UACC-62 melanoma
[10] = test system: LXFL 529 NSCLC
[11] = test system: SK-MEL-2 melanoma
[12] = test system: OVCAR-3 ovarian
[13] = test system: UACC-257 melanoma
[14] = test system: SNB-78 CNS
[15] = test system: HL-60(TB) leukemia
[16] = test system: CCRF-CEM leukemia
[17] = test system: HCT-15 colon
[18] = test system: SF-295 CNS
[19] = test system: M19-MEL melanoma
[20] = test system: SK-MEL-28 melanoma
[21] = test system: OVCAR-4 ovarian
[22] = test system: XF 498 CNS
[23] = test system: NCI-H23 lung
[24] = test system: SN12C renal
[25] = test system: U251 CNS
[26] = test system: OVCAR-8 ovarian
[27] = test system: OVCAR-5 ovarian
[28] = test system: DMS 114 small cell lung
[29] = test system: KM12 colon
[30] = test system: SF-539 CNS
[31] = test system: SK-OV-3 ovarian
[32] = test system: HOP-18 NSCLC
[33] = test system: IGROV1 ovarian
[34] = test system: DMS 273 small cell lung
[35] = test system: SW-620 colon
[36] = test system: ACHN renal
[37] = test system: TK-10 renal
[38] = test system: HOP-62 NSCLC
[39] = test system: K-562 leukemia
[40] = test system: HOP-92 NSCLC
[41] = test system: SF-268 CNS
[42] = test system: RXF-631 renal
[43] = test system: DLD-1 colon
[44] = test system: HCT-116 colon
[45] = test system: KM20L2 colon
[46] = test system: MALME-3M melanoma
[47] = test system: 786-0 renal
[48] = test system: EKVX NSCLC
[49] = test system: NCI-H460 lung
[50] = test system: CAKI-1 renal
[51] = test system: A549 NSCLC
[52] = test system: M14 melanoma
[53] = test system: NCI-H522 lung

Measured: TGI

NC(=O)n1ncc(Cl)c(Cl)c1=O
> 100 µM: all assays above
